Experiment [1] can be described thus: Cell growth assay (WST-8) for "B" compounds. The format is cell-based. Conditions: T47D, read-out: Cell growth Inhibition in T47D cell line IC50. In outline:
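Four-day compound exposure of cells plated at 1500/well the day before. Read-out is WST-8 (10%, 2.5 h, 37 °C) absorbance at 450 nm, normalized to vehicle control over three independent repeats.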
(In general: Formazan colour is commonly taken as a measure of viable cells.)

In a further experiment the target is ER (Homo sapiens (Human), UniProt P03372). The experiment in a line: In-cell western blot analysis of ER for "B" compounds. The format is cell-based. Conditions: 16 hours, read-out: ICW DC50. Put shortly:
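ER levels given as a percentage of untreated/DMSO-treated wells (100%). Detection used primary antibodies for 2 h at room temperature followed by 680 and 800 nm fluorescent secondaries at 1:1000 for 1 h, read by LI-COR imaging.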

Read-outs that look alike come from different tables or passages of the source.

As usually defined, the IC50 is the concentration that inhibits the measured activity by half.

ER, sequence (P03372 whole entry): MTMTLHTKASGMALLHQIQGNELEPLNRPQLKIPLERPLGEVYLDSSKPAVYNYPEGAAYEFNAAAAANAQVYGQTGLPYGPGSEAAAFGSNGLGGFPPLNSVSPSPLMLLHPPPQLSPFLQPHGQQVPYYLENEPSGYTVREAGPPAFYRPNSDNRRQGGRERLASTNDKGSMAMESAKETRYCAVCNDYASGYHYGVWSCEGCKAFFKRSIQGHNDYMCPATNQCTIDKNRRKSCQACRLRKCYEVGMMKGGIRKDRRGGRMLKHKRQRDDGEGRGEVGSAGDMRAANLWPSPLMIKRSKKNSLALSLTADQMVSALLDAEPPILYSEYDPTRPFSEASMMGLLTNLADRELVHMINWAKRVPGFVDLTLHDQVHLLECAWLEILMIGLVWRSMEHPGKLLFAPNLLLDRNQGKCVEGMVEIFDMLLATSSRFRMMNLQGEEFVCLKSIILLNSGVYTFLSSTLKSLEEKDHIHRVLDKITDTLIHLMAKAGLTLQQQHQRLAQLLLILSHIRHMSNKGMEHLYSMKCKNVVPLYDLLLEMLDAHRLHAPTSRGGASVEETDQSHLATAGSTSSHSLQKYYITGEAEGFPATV

For `O=C1CCC(N2Cc3cc4c(cc3C2=O)OC[C@@H]2CN(CC3CCC5(C3)CN(c3ccc([C@@H]6c7ccc(O)cc7CC[C@@H]6c6ccccc6)cc3)C5)CCN42)C(=O)N1` (stereo partly drawn) [Compound B358, 3-((4aS)-3-((2-(4-((1R,2S)-6-hydroxy-2-phenyl-1,2,3,4-tetrahydronaphthalen-1-yl)phenyl)-2-azaspiro[3.4]octan-6-yl)methyl)-8-oxo-1,2,3,4,4a,5,8,10-octahydro-9H-pyrazino[1′,2′:4,5][1,4]oxazino[2,3-f]isoindol-9-yl)piperidine-2,6-dione], in experiment [1] (T47D cell line), the IC50 was more than 0.01 µM. Moreover, the DC50 at ER fell in the range of 0.01 to 0.1 µM.
Turning to `O=C1CC[C@H](N2Cc3c(ccc4c3OCC43CCN(CC4CCC5(C4)CN(c4ccc([C@@H]6c7ccc(O)cc7CC[C@@H]6c6ccccc6)cc4)C5)CC3)C2=O)C(=O)N1` (stereo partly drawn) [Compound B359, 3-(1′-((2-(4-((1R,2S)-6-hydroxy-2-phenyl-1,2,3,4-tetrahydronaphthalen-1-yl)phenyl)-2-azaspiro[3.4]octan-6-yl)methyl)-6-oxo-6,8-dihydro-2H,7H-spiro[furo[2,3-e]isoindole-3,4′-piperidin]-7-yl)piperidine-2,6-dione], in experiment [1], the concentration for half-maximal inhibition (IC50) lay in the range of 0.001 to 0.01 µM. Further, the DC50 on ER fell in the range of 0.01 to 0.1 µM.
`O=C1CC[C@H](NC(=O)c2ccc3c(n2)OC[C@H]2CN(CC4CCC5(C4)CN(c4ccc([C@@H]6c7ccc(O)cc7CC[C@@H]6c6ccccc6)cc4)C5)CCN32)C(=O)N1` (stereo partly drawn) [Compound B360, (4aR)-N-((S)-2,6-dioxopiperidin-3-yl)-3-((2-(4-((1R,2S)-6-hydroxy-2-phenyl-1,2,3,4-tetrahydronaphthalen-1-yl)phenyl)-2-azaspiro[3.4]octan-6-yl)methyl)-1,2,3,4,4a,5-hexahydropyrazino[1,2-d]pyrido[2,3-b][1,4]oxazine-8-carboxamide]: the concentration for half-maximal inhibition (IC50) in experiment [1] (T47D cell line) is more than 0.01 µM. Moreover, the DC50 on ER was more than 0.1 µM.
Consider `O=C1CCC(N2Cc3cc4c(cc3C2=O)OC[C@@H]2CN(CC3CCC5(CCN(c6ccc([C@@H]7c8ccc(O)cc8CC[C@@H]7c7ccccc7)cc6)CC5)C3)CCN42)C(=O)N1` (stereo partly drawn) [Compound B363, 3-((4aS)-3-((8-(4-((1R,2S)-6-hydroxy-2-phenyl-1,2,3,4-tetrahydronaphthalen-1-yl)phenyl)-8-azaspiro[4.5]decan-2-yl)methyl)-8-oxo-1,2,3,4,4a,5,8,10-octahydro-9H-pyrazino[1′,2′:4,5][1,4]oxazino[2,3-f]isoindol-9-yl)piperidine-2,6-dione], for which the half-inhibitory concentration (IC50) in experiment [1] (T47D cell line) is more than 0.01 µM. Moreover, on ER, the DC50 was in the range of 0.01 to 0.1 µM.
In the case of `O=C1CCC(N2Cc3c(ccc4c3OCC43CCN(CC4CCC5(CCN(c6ccc([C@@H]7c8ccc(O)cc8CC[C@@H]7c7ccccc7)cc6)CC5)C4)CC3)C2=O)C(=O)N1` (stereo partly drawn) [Compound B364, 3-(1′-((8-(4-((1R,2S)-6-hydroxy-2-phenyl-1,2,3,4-tetrahydronaphthalen-1-yl)phenyl)-8-azaspiro[4.5]decan-2-yl)methyl)-6-oxo-6,8-dihydro-2H,7H-spiro[furo[2,3-e]isoindole-3,4′-piperidin]-7-yl)piperidine-2,6-dione], the concentration for half-maximal inhibition (IC50) in experiment [1] fell in the range of 0.001 to 0.01 µM. Further, the DC50 on ER is more than 0.1 µM.
For the molecule `O=C1CC[C@H](NC(=O)c2ccc3c(n2)OC[C@H]2CN(CC4CCC5(CCN(c6ccc([C@@H]7c8ccc(O)cc8CC[C@@H]7c7ccccc7)cc6)CC5)C4)CCN32)C(=O)N1` (stereo partly drawn) [Compound B365, (4aR)-N-((S)-2,6-dioxopiperidin-3-yl)-3-((8-(4-((1R,2S)-6-hydroxy-2-phenyl-1,2,3,4-tetrahydronaphthalen-1-yl)phenyl)-8-azaspiro[4.5]decan-2-yl)methyl)-1,2,3,4,4a,5-hexahydropyrazino[1,2-d]pyrido[2,3-b][1,4]oxazine-8-carboxamide], the IC50 in experiment [1] (T47D cell line) was more than 0.01 µM. Also, at ER, the DC50 lay in the range of 0.01 to 0.1 µM.

Source of the values: patent publication US20260028354A1, “TETRAHYDRONAPHTHALENE DERIVATIVES AS ESTROGEN RECEPTOR DEGRADERS” (REGENT OF THE UNIVERSITY OF MICHIGAN, priority 2022, published 2026).
